Experimental data taken from patent US8097238B2, “Cell targeting conjugates” (Peter MacCallum Cancer Institute, priority 2004, dated 2012).
Values joined by “and” are separate entries in the source; they are usually repeats but may differ in a detail not shown here. Identical values can stand only once.

Tests used:
K562 cells = experiment: K562 cell survival after incubation with labelled iodoHoechst 33258; assay type: cell-based, human; details: 500 nM for 1 hour at 37° C., decays accumulated at 5° C. for 24 hours
Description: Cells (5×10^5/ml) in RPMI-1640 medium containing 10% FBS and gentamicin were incubated with varying specific activities of ^127I/^123I-iodoHoechst 33258 (500 nM) for 1 hour at 37° C. Following incubation the cells were separated from the supernatant by 3 centrifugation (400×g for 3 minutes)-wash cycles. The cell pellets were suspended in RPMI medium and ^123I-decays were accumulated at 5° C. for 24 hours. Following accumulation of decays, the cell-pellets were isolated by centrifugation at 400×g for 3 minutes, suspended in AMEM containing 20% FBS and an appropriate cell number from each of the samples was cloned in semi-solid (0.33% (w/v)) noble agar in 6-well microtiter plates, as discussed above.

plasmid DNA = experiment: Plasmid DNA breakage, ^123I/^125I double isotope method; assay type: biochemical
Description: The experimental design exploits the plasmid DNA assay system, and agarose gel electrophoresis, as described previously to evaluate DNA breakage by the labelled minor groove binding DNA ligand, ^125I-iodoHoechst 33258 (Lobachevsky, Karagiannis and Martin 2004).
The accumulation of DNA single-stranded breaks and DNA double-stranded breaks is monitored by quantitation of the decline in the fraction of intact supercoiled plasmid (S), and the corresponding increase in the fractions of relaxed (R) and linear (L) species, with the progressive accumulation of decay events. Various assumptions enable the derivation of the relationship between the parameters S, R and L (or their normalised counterparts S′, R′ and L′), the number of decay events (n), and for example, the yield of double-stranded breaks per decay (d) of isotope in DNA-bound ligand. […] Accordingly, a double isotope strategy was developed, using a mixture of ^123I- and ^125I-iodoHoechst 33258. This approach yields a ratio d values, providing an estimate of the relative efficiency (^123I relative to ^125I) for double-strand breaks per decay, which is independent of f.
The basis of the double isotope method is apparent from the following relationship:
Where n1 is the number of ^123I decays, and n1m is the maximum (ie at time=infinity) number of ^123I decays.
A plot of the LHS term of the above equation versus n2 (the number of ^125I decay events in the incubation mixture) yields a two phase curve, the 2nd phase of which approaches a straight line (when n1=n1m). The values for the apparent breakage DNA dsb efficiency of ^123I and ^125I decays (da1 and da2, respectively) are obtained from the y intercept and from the gradient of the asymptote of the second phase of the curve, as shown in FIG. 14.
The apparent breakage efficiency is related to the actual efficiency of DNA-bound decay events, d, by the expression: da=df+δA
Where δA is the term for the “external” component of damage, arising from decay of non-DNA-bound isotope, which can be ignored because of the particular conditions of the
[formula] experiment, particularly, a low DNA concentration, A. Thus analysis of the data as exemplified in FIG. 14 provides the ratio of breakage efficiencies of ^123I versus ^125I decays.

In the case of CN1CCN(c2ccc3nc(-c4ccc5nc(-c6ccc(O)c(I)c6)[nH]c5c4)[nH]c3c2)CC1 [^123I-iodoHoechst 33258], the “decays required for a lethal event” value (K562 cells) was “about 230 ^123I-decays per cell”, the “da1(^123I), apparent DNA dsb breakage efficiency” value (plasmid DNA; DMSO added to 10% (D series)) was 0.158 and 0.170 and 0.159 and the “da1(^123I)/da2(^125I)” value (plasmid DNA; DMSO added to 10% (D series)) was 0.63 and 0.69 and 0.62. For the same compound, the “Average da1(^123I)/da2(^125I)” value (plasmid DNA; DMSO added to 10% (D series), samples D1.2-D3.2) was 0.65 ± 0.03, the “da1(^123I), apparent DNA dsb breakage efficiency” value (plasmid DNA; aqueous buffer (N series)) was 0.244 and 0.253 and 0.314 and the “da1(^123I)/da2(^125I)” value (plasmid DNA; aqueous buffer (N series)) was 0.59 and 0.64 and 0.66. The “Average da1(^123I)/da2(^125I)” value (plasmid DNA; aqueous buffer (N series), samples N1.2-N3.2) was 0.63 ± 0.03.
